As a reminder, the IC50 is the concentration at which inhibition is half-maximal. High values mean lower potency, low ones higher potency.

The source of these data is US20070032477A1, “Pteridine derivatives useful for making pharmaceutical compositions” (priority 2003, published 2007).

Where a name gives a salt, the structure may show the parent alone.

The subject of data set [1] is mixed lymphocyte reaction (PBMC with allogeneic PBMC or Eppstein-Barr Virus-transformed human B cells as stimulator cells). Nature of the data set: Mixed lymphocyte reaction (MLR) assay. Particulars: lowest concentration giving 50% suppression of the MLR; [3H]-thymidine. The class given is cell-based.
The subject of data set [2] is production of TNF-α by PBMC in response to stimulation by LPS. Nature of the data set: TNF-α assay. It counts as cell-based, human. As to conditions: LPS 1 μg/ml, 72 hours, sandwich ELISA. A digest of the protocol:
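Cells were LPS-stimulated (1 μg/ml final) peripheral blood mononuclear cells at 10^6/ml, exposed 72 h at 37 °C to 0.1, 1 or 10 μM test compound.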
In general terms: In an ELISA, binding on a coated surface is turned into a signal by an enzyme label.

Data set [3] can be described thus: Plasma levels after oral administration in healthy mice. It counts as in vivo, C57BL/6 mice. As to conditions: 20 mg/kg once a day. The method, then: Each group of 6 mice received the indicated dose at time point 0 and were bled at 1, 3 and 5 hours after compound administration. Quantification was performed using a calibration curve of known compound concentrations spiked in control serum.
The plasma levels of the tested compound (example 176) was evaluated in C57BL/6 mice 8-10 weeks old Harlan, weighing 18.6-22.0 g after oral administration of 20, 10, 5 and 1 mg/kg, respectively (n=6 per dose). The tested compound (example 176) was dissolved in water to the appropriate concentration in order to deliver a constant gavage volume of 10 μl/g of body weight. Blood was collected by eye bleeding with heparinized capillaries at 1, 3, and 5 hours after dosing from each animal. The plasma fraction was immediately separated by centrifugation for 2 minutes at 12,000 g and stored at −80° C. until analysis. Each plasma sample was spiked with internal standard followed by the addition of 4 volumes of methanol. The samples were kept for 30 minutes on ice prior to centrifugation (10 minutes at 12,000 g) in order to remove precipitated proteins. The supernatant was analyzed for the presence of the tested compound (example 176), using LC/MS/MS. As standard for the bio-analysis, the tested compound (example 176) was diluted stepwise; each dilution was added to control plasma; additionally spiked with internal standard, giving rise to standard curves from 200 to 40,000 nM.

Data set [4] in a line: Mixed lymphocyte reaction (MLR) assay. Particulars: Homo sapiens, Lymphocyte; lowest concentration giving 50% suppression of the MLR; [3H]-thymidine. The class given is cell-based, human.
Data set [5] concerns CII induced rheumatoid arthritis in DBA mice. Put plainly: Collagen type II induced model of rheumatoid arthritis. As to conditions: mice in vivo; example 17 up to 40 mg/kg/day; methotrexate 10 mg/kg/day, 3 times a week. From the text: Collagen type II (hereinafter referred as CII) induced experimental model of rheumatoid arthritis (hereinafter referred as RA) in DBA mice is widely accepted as the most relevant and predictive preclinical model for RA. In this model, DBA mice are immunized with CII, the collagen type mainly present in the joint structures, together with complete Freund Adjuvant in their tail. 2 to 3 weeks later, several of the immunized mice start to develop arthritis in the four footpaths. In order to further worsen the disease, mice are given a second CII boost at three weeks after the first immunisation, this time however in a footpath. Because the immune system is already immunised in these mice, this rapidly provokes a severe swelling of the injected footpath (named Delayed Type Hypersensitivity or DTH) which can be used as a measurement for T-cell activation. Within a few days after the booster, almost all untreated animals start developing symptoms of arthritis. RA development is scored from 0 to 16 (16 being severe clinical arthritis in all four footpaths). At the end of the study (3 weeks after the CII boost) antibody formation was determined against CII and histology performed on the footpaths.
The efficiency of the pteridine derivative of example 17 (administered in an amount of 20 mg/kg/day, started one day before the CII boost) was explored in this CII-model.

`CCCCCC(=O)N1CCN(c2nc(N)nc3ncc(-c4ccc(OC)c(OC)c4)nc23)CC1` [Example 10, 2-amino-4-[(N-hexanoyl)-piperazin-1-yl]-6-(3,4-dimethoxyphenyl)pteridine]: the IC50 was found to be 100 nM in data set [1] and 70 nM in data set [2]. In addition, the “serum concentrations versus in vitro IC50 for IL-1β production or T cell activation” value in data set [3] is “insufficient to inhibit IL-1β production or T cell activation”.
`CCCN(CCC)CCN1CCN(c2nc(N)nc3ncc(-c4ccc(OC)c(OC)c4)nc23)CC1` [Example 183, 2-amino-6-(3,4-dimethoxyphenyl)-4-(4-(2-dipropylaminoethyl)-piperazin-1-yl)pteridine trihydrochloride salt]: the figures for the IC50 in data set [4] and in data set [2] (Homo sapiens) were 8200 nM and 1200 nM, respectively.
On to `COc1ccc(-c2cnc3nc(N)nc(N4CCN(CCN5CCCCC5)CC4)c3n2)cc1OC` [Example 184, 2-amino-6-(3,4-dimethoxyphenyl)-4-(4-(2-piperidin-1-yl-ethyl)-piperazin-1-yl)pteridine trihydrochloride salt], for which the IC50 in data set [4] is 7700 nM; in data set [2] (Homo sapiens), 700 nM.
Take `CN(Cc1cnc2nc(N)nc(N)c2n1)c1ccc(C(=O)N[C@@H](CCC(=O)O)C(=O)O)cc1` [methotrexate, reference compound]: the “mortality or cytotoxic effect on increasing the dose” value in data set [5] is on record as “death of all animals”.
